# Experimental data published in US10550110B2, “Tetrahydroquinoline sulfonamide derivatives as inverse agonists of retinoid-related orphan receptor gamma (ROR gamma (t))” (GALDERMA RESEARCH & DEVELOPMENT, priority 2014, dated 2020).
# Target: T1, ROR gamma ligand-binding domain (LBD) (hRORg) (Homo sapiens, UniProt P51449)
# T1 construct: expressed in transfected cells; host or cells: HG5LN (HeLa line with GAL4-responsive luciferase reporter)
# T1 sequence (P51449 269-508 limits assumed): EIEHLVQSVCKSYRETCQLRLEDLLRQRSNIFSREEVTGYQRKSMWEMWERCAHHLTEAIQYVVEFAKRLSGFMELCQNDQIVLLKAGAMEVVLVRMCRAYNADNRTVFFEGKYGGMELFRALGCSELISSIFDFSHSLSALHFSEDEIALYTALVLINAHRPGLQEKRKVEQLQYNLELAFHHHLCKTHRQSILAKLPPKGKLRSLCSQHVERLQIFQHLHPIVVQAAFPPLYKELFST
# Test: GAL4-RORγ transactivation (luciferase reporter, HG5LN HeLa line)
# Assay type: cell-based
# Conditions: HG5LN HeLa line with GAL4 DBD fused to ROR gamma LBD, 18 hours incubation
# Description: GAL4—RORγ Transactivation
# The RORγ transactivation model was developed from the line HG5LN, which is a HeLa line that stably expresses a luciferase reporter gene controlled by a pentamer of the GAL4 recognition domain of yeast and of a β-globin promoter. The HG5LN line was stably transfected by the DNA-binding domain (DBD) of GAL4 fused to the ROR gamma ligand-binding domain (LBD). Molecules that inhibit the ROR gamma constitutive activity reduce the luciferase expression, thus leading to a reduction in the emitted luminescence.
# The cells are seeded in 384-well plates (5000 cells in 45 μL/well of culture medium containing 10% fetal calf serum) and incubated for 4 hours at 37° C., 5% CO2. 5 μL of the test molecules (compounds described in the tables described above) are then added to each well and the plates are incubated for 18 hours at a temperature of 37° C. under 5% of CO2. 20 μL of luciferase substrate (Promega) are added to each well and the luminescence emitted is read by a microplate reader.
# The luminescence units (“RLU”) are normalized by positive controls (“POS” containing a saturated concentration of N-(2,2,2-trifluoroethyl)-N-[4-[2,2,2-trifluoro-1-hydroxy-1-(trifluoromethyl)ethyl]phenyl])benzenesulfonamide and negative controls (“NEG” containing DMSO): % inhibition=((RLU-NEG)*100)/(POS-NEG). The IC50 values are calculated from a 4-parameter logistic model using the XLFit software (IDBS).
row,SMILES,IC50 [nM]
1,"CCc1ccc(N(CC(C)C)S(=O)(=O)c2ccc3c(c2)C(O)CCN3CC2CCC(O)CC2)cc1 (single isomer, unassigned) [Compound 42, 4-hydroxy-1-(4-hydroxycyclohexylmethyl)-1,2,3,4-tetrahydroquinoline-6-sulfonic acid (4-ethylphenyl)isobutylamide]",100 to 1000
2,"CCc1ccc(N(CC(C)C)S(=O)(=O)c2ccc3c(c2)C(O)CCN3CC2CCC(O)CC2)cc1 (single isomer, unassigned) [Compound 43, 4-hydroxy-1-(4-hydroxycyclohexylmethyl)-1,2,3,4-tetrahydroquinoline-6-sulfonic acid (4-ethylphenyl)isobutylamide]",100 to 1000
3,"CCc1ccc(N(CC(C)C)S(=O)(=O)c2ccc3c(c2)C(O)CCN3C2CCNC(=O)C2)cc1 (single isomer, unassigned) [Compound 52, 4-hydroxy-1-(2-oxopiperidin-4-yl)-1,2,3,4-tetrahydroquinoline-6-sulfonic acid (4-ethylphenyl)isobutylamide]",> 1000
4,"CCc1ccc(N(CC(C)C)S(=O)(=O)c2ccc3c(c2)C(O)CCN3C2CCNC(=O)C2)cc1 (single isomer, unassigned) [Compound 53, 4-hydroxy-1-(2-oxopiperidin-4-yl)-1,2,3,4-tetrahydroquinoline-6-sulfonic acid (4-ethylphenyl)isobutylamide]",> 1000
5,"CCc1ccc(N(CC(C)C)S(=O)(=O)c2ccc3c(c2)C(=O)CCN3CC2CCC(=O)N2)cc1 (stereo not drawn) [Compound 3, 4-oxo-1-(5-oxopyrrolidin-2-ylmethyl)-1,2,3,4-tetrahydroquinoline-6-sulfonic acid (4-ethylphenyl)isobutylamide]",> 1000
6,"CCc1ccc(N(CC(C)C)S(=O)(=O)c2ccc3c(c2)C(=O)CCN3CC2CCN(C(=O)OC(C)(C)C)CC2)cc1 [Compound 5, tert-butyl ester of 4-{6-[(4-ethylphenyl)isobutylsulfamoyl]-4-oxo-3,4-dihydro-2H-quinolin-1-ylmethyl}piperidine-1-carboxylic acid]",> 1000
7,"CCc1ccc(N(CC(C)C)S(=O)(=O)c2ccc3c(c2)C(=O)CCN3CC2(C)CCOCC2)cc1 [Compound 6, 1-(4-methyltetrahydropyran-4-ylmethyl)-4-oxo-1,2,3,4-tetrahydroquinoline-6-sulfonic acid (4-ethylphenyl)isobutylamide]",100 to 1000
8,"CCc1ccc(N(CC(C)C)S(=O)(=O)c2ccc3c(c2)C(=O)CCN3CC2CCS(=O)(=O)CC2)cc1 [Compound 7, 1-(1,1-dioxohexahydro-1λ^6-thiopyran-4-ylmethyl)-4-oxo-1,2,3,4-tetrahydroquinoline-6-sulfonic acid (4-ethylphenyl)isobutylamide]",> 1000
9,"CCc1ccc(N(CC(C)C)S(=O)(=O)c2ccc3c(c2)C(=O)CCN3Cc2ccc(C(=O)NO)cc2)cc1 [Compound 8, 4-{6-[(4-ethylphenyl)isobutylsulfamoyl]-4-oxo-3,4-dihydro-2H-quinolin-1-ylmethyl}-N-hydroxybenzamide]",> 1000
10,"CCc1ccc(N(CC(C)C)S(=O)(=O)c2ccc3c(c2)C(O)CCN3CC2CCC(=O)N2)cc1 (stereo not drawn) [Compound 9, 4-hydroxy-1-(5-oxopyrrolidin-2-ylmethyl)-1,2,3,4-tetrahydroquinoline-6-sulfonic acid (4-ethylphenyl)isobutylamide]",100 to 1000
11,"CCc1ccc(N(CC(C)C)S(=O)(=O)c2ccc3c(c2)C(O)CCN3CC2CCN(C(=O)OC(C)(C)C)CC2)cc1 (stereo not drawn) [Compound 12, tert-butyl ester of 4-{6-[(4-ethylphenyl)isobutylsulfamoyl]-4-hydroxy-3,4-dihydro-2H-quinolin-1-ylmethyl}piperidine-1-carboxylic acid]",> 1000
12,"CCc1ccc(N(CC(C)C)S(=O)(=O)c2ccc3c(c2)C(O)CCN3C2CCN(C(=O)OC(C)(C)C)CC2)cc1 (stereo not drawn) [Compound 13, tert-butyl ester of 4-{6-[(4-ethylphenyl)isobutylsulfamoyl]-4-hydroxy-3,4-dihydro-2H-quinolin-1-yl}piperidine-1-carboxylic acid]",> 1000
